Measurements reported in US12064426B2, “Selective inhibitors of ROCK1 and ROCK2 protein kinases and uses thereof” (GENOSCO Inc., priority 2021, dated 2024).

Legend:
[1] = target: T1, Recombinant ROCK2 (amino acids 5-554) (Homo sapiens, UniProt O75116); assay: ROCK inhibition assay, LANCE Ultra TR-FRET kinase assay (ROCK2); assay type: biochemical; settings: 4 μM ATP, 50 nM ULight-CREBtide substrate
T1 construct: ROCK2 (amino acids 5-554); by word order, ROCK2 from SignalChem
Procedure: (§1) Kinase IC50 was determined through an in vitro assay based on LANCE Ultra TR-FRET (Time-Resolved Fluorescence Resonance Energy Transfer) homogeneous technologies method (Perkin Elmer). Recombinant ROCK1 (amino acids 1-477) and ROCK2 (amino acids 5-554) proteins were purchased from Carna Biosciences and SignalChem. Compound activities were measured by Envision and IC50s were calculated. The assays were performed in white LUMITRAC™ 200 96 well half-area microplates from Greiner Bio-One. The kinase reaction buffer consisted of 50 mM HEPES pH 7.5, 1 mM EGTA, 10 mM MgCl2, 2 mM DTT and 0.01% Tween-20. Kinases were incubated with 50 nM (ULight-CREBtide) substrate in the presence of 1 (ROCK1) or 4 (ROCK2) μM ATP. The kinase reaction was carried out for 1 hour before addition of a stopping buffer to a final of 10 mM EDTA and 0.6 nM of LANCE Ultra Europium anti-phospho-CREB (Ser133) antibody (PerkinElmer TRF0200) in LANCE detection buffer. All assay incubations were performed at room temperature, and the microplates were sealed with polyester film during that time. The reaction was incubated for 1 hour, and the signal was read in Envision in TR-FRET mode (excitation at 320 nm and emission at 615/665 nm).
(§2) As used herein, a way to describe potency of inhibitory activity (nM) is a value of inhibitory activity at 50% (IC50).

[2] = target: T2, Recombinant ROCK1 (amino acids 1-477) (Homo sapiens, UniProt Q13464); assay: ROCK inhibition assay, LANCE Ultra TR-FRET kinase assay (ROCK1); assay type: biochemical; settings: 1 μM ATP, 50 nM ULight-CREBtide substrate
T2 construct: Recombinant ROCK1 (amino acids 1-477); by word order, ROCK1 from Carna Biosciences
Procedure: as §1, §2

T1 sequence (O75116 5-554): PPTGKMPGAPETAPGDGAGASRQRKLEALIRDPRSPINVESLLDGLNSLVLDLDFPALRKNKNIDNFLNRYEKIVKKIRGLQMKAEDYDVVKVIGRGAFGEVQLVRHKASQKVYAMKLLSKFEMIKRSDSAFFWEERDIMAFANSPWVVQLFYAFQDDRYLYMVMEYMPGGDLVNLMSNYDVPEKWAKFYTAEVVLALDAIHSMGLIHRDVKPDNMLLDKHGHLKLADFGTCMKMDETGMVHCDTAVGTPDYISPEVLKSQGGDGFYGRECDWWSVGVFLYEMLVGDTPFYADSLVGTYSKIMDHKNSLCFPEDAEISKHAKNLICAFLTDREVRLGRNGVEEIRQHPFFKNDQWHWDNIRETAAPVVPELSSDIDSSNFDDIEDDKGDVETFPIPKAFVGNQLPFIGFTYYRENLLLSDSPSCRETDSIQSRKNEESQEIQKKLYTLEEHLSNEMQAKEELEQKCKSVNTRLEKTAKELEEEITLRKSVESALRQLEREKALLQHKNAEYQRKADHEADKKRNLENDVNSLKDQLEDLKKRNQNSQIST
T2 sequence (Q13464 1-477): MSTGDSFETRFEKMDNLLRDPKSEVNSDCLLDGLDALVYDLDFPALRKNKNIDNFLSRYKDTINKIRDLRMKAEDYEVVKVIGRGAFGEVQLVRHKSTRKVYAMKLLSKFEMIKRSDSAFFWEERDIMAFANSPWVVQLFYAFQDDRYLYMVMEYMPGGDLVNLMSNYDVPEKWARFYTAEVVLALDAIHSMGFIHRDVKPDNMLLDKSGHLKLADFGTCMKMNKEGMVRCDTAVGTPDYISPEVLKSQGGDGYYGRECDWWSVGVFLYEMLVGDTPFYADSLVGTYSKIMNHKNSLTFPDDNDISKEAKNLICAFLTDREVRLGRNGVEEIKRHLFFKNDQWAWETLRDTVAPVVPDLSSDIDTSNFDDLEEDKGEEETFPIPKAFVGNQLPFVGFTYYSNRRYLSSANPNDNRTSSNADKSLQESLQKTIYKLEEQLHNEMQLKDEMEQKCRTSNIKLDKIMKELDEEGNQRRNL

Row | SMILES | IC50 [1] [nM] | IC50 [2] [nM]
1 | COc1cccc(CN2CCc3cc(-c4cn[nH]c4)ccc3C2=O)c1 [Compound 1, 2-(3-methoxybenzyl)-6-(1H-pyrazol-4-yl)-3,4-dihydroisoquinolin-1(2H)-one] | 100 to 500 | > 501
2 | COc1cccc(Cn2ccc3cc(-c4cn[nH]c4)ccc3c2=O)c1 [Compound 2, 2-(3-methoxybenzyl)-6-(1H-pyrazol-4-yl)isoquinolin-1(2H)-one] | 10 to 100 | 101 to 500
3 | O=c1c2ccc(-c3cn[nH]c3)cc2ccn1Cc1cccc(O)c1 [Compound 3, 2-(3-hydroxybenzyl)-6-(1H-pyrazol-4-yl)isoquinolin-1(2H)-one] | 10 to 100 | 101 to 500
4 | COc1cccc(Cn2ccc3cc(-c4c[nH]nc4C)ccc3c2=O)c1 [Compound 4] | < 10 | 11 to 100
5 | Cc1n[nH]cc1-c1ccc2c(=O)n(Cc3cccc(O)c3)ccc2c1 [Compound 5] | 10 to 100 | 101 to 500
6 | COc1cccc(Cn2ccc3cc(-c4c[nH]nc4C(F)(F)F)ccc3c2=O)c1 [Compound 6] | < 10 | 11 to 100
7 | O=c1c2ccc(-c3c[nH]nc3C(F)(F)F)cc2ccn1Cc1cccc(O)c1 [Compound 7] | 10 to 100 | 101 to 500
8 | CC(c1cccc(O)c1)n1ccc2cc(-c3c[nH]nc3C(F)(F)F)ccc2c1=O (centres unmarked) [Compound 8] | 10 to 100 | 101 to 500
9 | COc1cccc(Cn2ccc3cc(-c4conc4C)ccc3c2=O)c1 [Compound 9] | < 10 | 11 to 100
10 | COc1cccc(Cn2ccc3cc(-c4ccnn4C)ccc3c2=O)c1 [Compound 11] | < 10 | 11 to 100
11 | COc1cccc(Cn2ccc3cc(-c4c[nH]nc4C(F)F)ccc3c2=O)c1 [Compound 13] | < 10 | 11 to 100
12 | O=c1c2ccc(-c3c[nH]nc3C(F)F)cc2ccn1Cc1cccc(O)c1 [Compound 14] | < 10 | 11 to 100
13 | CC(c1cccc(O)c1)n1ccc2cc(-c3c[nH]nc3C(F)F)ccc2c1=O (centres unmarked) [Compound 15] | < 10 | 11 to 100
14 | COc1cc(F)cc(Cn2ccc3cc(-c4c[nH]nc4Cl)ccc3c2=O)c1 [Compound 17] | < 10 | 11 to 100
15 | COc1cccc(Cn2ccc3cc(-c4c[nH]nc4Cl)ccc3c2=O)c1 [Compound 18] | < 10 | 11 to 100
16 | COc1cccc(C(C)n2ccc3cc(-c4c[nH]nc4Cl)ccc3c2=O)c1 (centres unmarked) [Compound 19] | < 10 | < 10
17 | O=c1c2ccc(-c3c[nH]nc3Cl)cc2ccn1Cc1cccc(O)c1 [Compound 20] | < 10 | < 10
18 | CC(c1cccc(O)c1)n1ccc2cc(-c3c[nH]nc3Cl)ccc2c1=O (centres unmarked) [Compound 21] | < 10 | 11 to 100
19 | O=c1c2ccc(-c3ccncc3)cc2ccn1Cc1cccc(O)c1 [Compound 23] | 100 to 500 | > 501
20 | COc1cccc(C(C)n2ccc3cc(-c4ccnc(N)c4)ccc3c2=O)c1 (centres unmarked) [Compound 26] | 10 to 100 | 101 to 500
21 | O=C(NCCc1ccccn1)c1cccc(Cn2ccc3cc(-c4cn[nH]c4)ccc3c2=O)c1 [Compound 27, 3-((1-oxo-6-(1H-pyrazol-4-yl)isoquinolin-2(1H)-yl)methyl)-N-(2-(pyridin-2-yl)ethyl)benzamide] | < 10 | 11 to 100

More lines, now with the values ahead:

Row | IC50 [1] [nM] | IC50 [2] [nM] | SMILES
22 | 10 to 100 | 101 to 500 | CC(C)NC(=O)c1cccc(Cn2ccc3cc(-c4cn[nH]c4)ccc3c2=O)c1 [Compound 28]
23 | 100 to 500 | > 501 | O=C(Nc1ccccc1)c1cccc(Cn2ccc3cc(-c4cn[nH]c4)ccc3c2=O)c1 [Compound 29]
24 | 100 to 500 | > 501 | O=C(NCc1ccccc1)c1cccc(Cn2ccc3cc(-c4cn[nH]c4)ccc3c2=O)c1 [Compound 30]
25 | < 10 | 101 to 500 | Cc1n[nH]cc1-c1ccc2c(=O)n(Cc3cccc(C(=O)Nc4ccn(C)n4)c3)ccc2c1 [Compound 32]
26 | 100 to 500 | > 501 | Cc1n[nH]cc1-c1ccc2c(=O)n(Cc3cccc(C(=O)NCc4cccc(NS(C)(=O)=O)c4)c3)ccc2c1 [Compound 33]
27 | 100 to 500 | > 501 | Cc1n[nH]cc1-c1ccc2c(=O)n(Cc3cccc(C(=O)Nc4cccc(S(N)(=O)=O)c4)c3)ccc2c1 [Compound 34]
28 | 100 to 500 | > 501 | Cc1n[nH]cc1-c1ccc2c(=O)n(Cc3cccc(C(=O)Nc4cccc(OC(F)(F)F)c4)c3)ccc2c1 [Compound 35]
29 | 100 to 500 | > 501 | Cc1n[nH]cc1-c1ccc2c(=O)n(Cc3cccc(C(=O)Nc4ccc(S(N)(=O)=O)cc4)c3)ccc2c1 [Compound 36]
30 | 100 to 500 | > 501 | Cc1n[nH]cc1-c1ccc2c(=O)n(Cc3cccc(C(=O)Nc4ccc(NS(C)(=O)=O)cc4)c3)ccc2c1 [Compound 37]
31 | 100 to 500 | > 501 | Cc1n[nH]cc1-c1ccc2c(=O)n(Cc3cccc(C(=O)Nc4ccccc4OC(F)(F)F)c3)ccc2c1 [Compound 38]
32 | 10 to 100 | 101 to 500 | Cc1n[nH]cc1-c1ccc2c(=O)n(Cc3cccc(C(=O)Nc4ccc(F)nc4)c3)ccc2c1 [Compound 39]
33 | 10 to 100 | 101 to 500 | Cc1n[nH]cc1-c1ccc2c(=O)n(Cc3cccc(C(=O)NCC(F)(F)F)c3)ccc2c1 [Compound 41]
34 | 10 to 100 | 101 to 500 | NS(=O)(=O)c1ccc(NC(=O)c2cccc(Cn3ccc4cc(-c5c[nH]nc5C(F)(F)F)ccc4c3=O)c2)cc1 [Compound 42]
35 | < 10 | 11 to 100 | Cn1ccc(NC(=O)c2cccc(Cn3ccc4cc(-c5cn[nH]c5C(F)(F)F)ccc4c3=O)c2)n1 [Compound 43]
36 | < 10 | 11 to 100 | O=C(NCc1ccc(F)nc1)c1cccc(Cn2ccc3cc(-c4c[nH]nc4C(F)(F)F)ccc3c2=O)c1 [Compound 44]
37 | 10 to 100 | 101 to 500 | O=C(NC1CCOCC1)c1cccc(Cn2ccc3cc(-c4c[nH]nc4C(F)(F)F)ccc3c2=O)c1 [Compound 45]
38 | < 10 | < 10 | O=C(NC1CCNCC1)c1cccc(Cn2ccc3cc(-c4c[nH]nc4C(F)(F)F)ccc3c2=O)c1 [Compound 46]
39 | < 10 | < 10 | CN1CCC(NC(=O)c2cccc(Cn3ccc4cc(-c5c[nH]nc5C(F)(F)F)ccc4c3=O)c2)CC1 [Compound 47]
40 | < 10 | 101 to 500 | O=C(NC1CCN(C2COC2)CC1)c1cccc(Cn2ccc3cc(-c4c[nH]nc4C(F)(F)F)ccc3c2=O)c1 [Compound 48]
41 | < 10 | 101 to 500 | O=C(NC1CCN(CC(F)F)CC1)c1cccc(Cn2ccc3cc(-c4c[nH]nc4C(F)(F)F)ccc3c2=O)c1 [Compound 49]
42 | 10 to 100 | 101 to 500 | O=C(NC1CC1)c1cccc(Cn2ccc3cc(-c4c[nH]nc4C(F)(F)F)ccc3c2=O)c1 [Compound 50]
43 | < 10 | < 10 | CN1CCC(CNC(=O)c2cccc(Cn3ccc4cc(-c5c[nH]nc5C(F)(F)F)ccc4c3=O)c2)CC1 [Compound 51]
44 | < 10 | 11 to 100 | O=C(NCC1CCOCC1)c1cccc(Cn2ccc3cc(-c4c[nH]nc4C(F)(F)F)ccc3c2=O)c1 [Compound 52]
45 |  | 101 to 500 | C[C@H](c1cccc(C(=O)Nc2ccon2)c1)n1cnc2cc(-c3cn[nH]c3C(F)(F)F)ccc2c1=O [Compound 448]
